These results are taken from patent publication US6544540B2, “Base-triggered release microcapsules” (priority 1998, dated 2003).

The subject of series [1] is Lygus hesperus. Nature of the series: Test 1 A. Contact/Residue Contact, adult bugs in cages sprayed, mortality. Format: in vivo. The text has this:
Lygus hesperius was the subject in this test. Adult bugs in cages were sprayed at 250 l/h. There were four replicates of 10 insects for 5 rates of each formulation. Mortality assessments were made at 1, 2, 3, 4, 5, and 6 DAT.

In series [2] the test system is Heliothis virescens. Nature of the series: Test 1 B. Foliar Persistence, neonate larvae on disks of sprayed detached cotton leaves, mortality. It counts as in vivo. The note with it: cotton leaf disks.

For the compound `CCOP(=S)(OCC)Oc1nc(Cl)c(Cl)cc1Cl` [Chlorpyrifos technical, chlorpyrifos], the “LC50 1DAT” value was 313 ppm in series [1] (mortality at 1 DAT, sprayed at 250 l/h) and 9.8 ppm in series [2] (mortality at 1 DAT). Moreover, the “LC50 2DAT” value in series [1] (mortality at 2 DAT, sprayed at 250 l/h) amounted to 310 ppm; in series [2] (mortality at 2 DAT) it was 8.6 ppm. For the same compound, the “LC50 3DAT” value was determined as 311 ppm in series [1] (mortality at 3 DAT, sprayed at 250 l/h) and 12.2 ppm in series [2] (mortality at 3 DAT). For the same compound, the “LC50 4DAT” value in series [1] (mortality at 4 DAT, sprayed at 250 l/h) is 313 ppm. The “LC50 5DAT” value in series [1] (mortality at 5 DAT, sprayed at 250 l/h) came to 313 ppm. Moreover, the “LC50 6DAT” value in series [1] (mortality at 6 DAT, sprayed at 250 l/h) is listed as 325 ppm. The 50% lethal concentration (LC50) in series [1] (previous test results, Lygus hesperus contact/residue contact) is on record as about 300 ppm. Also, the “LC50 Total” value in series [2] (Total over 1-3 DAT) is listed as 10.2 ppm.

The LC50 is the concentration lethal to half of the exposed cells or organisms. The low end stands for greater toxicity, the high end for lower toxicity.
